Results published in patent publication US7538226B2, “(1S,5S)-3-(5,6-dichloro-3-pyridinyl)-3,6-diazabicyclo[3.2.0]heptane” (Abbott Laboratories, priority 2003, dated 2009).

Assays:
[1] = Solubility in water; assay type: physicochemical
[2] = test system: scopolamine-induced cognitive deficit; assay: Morris water maze, spatial discrimination version, scopolamine-induced cognitive deficit; assay type: in vivo, rat; conditions: about 0.001 to about 5 μmol/kg, 30 minutes prior to the test; scopolamine HBr 0.3 mg/kg i.p.
Procedure: Male, Long-Evans rats, 300-400 g, obtained from Charles River laboratories were used in this study. During two daily habituation sessions, rats are trained to find a visible escape platform in a pool (180 cm diameter and 60 cm high) filled to a depth of 37 cm with water made opaque with powdered milk. Water temperature is maintained at 26° C. On the second day of habituation training, latency to escape measures are obtained in order to assure that animals are assigned to groups without swim speed bias. For spatial discrimination training, two visible platforms, covered in aluminum foil, are present. The platforms remain in the same position (diagonal to each other) through 5 days of training. Only one of the platforms provides escape; the other, made of expanded polystyrene, will not support the animals' weight. Rats receive six trials/day, with start position changed from trial to trial. The number of contacts with the incorrect platform (errors) serves as the dependent variable.
A cognitive deficit, as measured by increased number of errors in the water maze test, is induced by i.p. administration of the muscarinic antagonist scopolamine·HBr (0.3 mg/kg), dosed 15 min prior to each daily discrimination training session (over five days total).

Structure (SMILES) | solubility [1] [µg/mL] | effect on scopolamine-induced cognitive deficit in the water maze [2]
CS(=O)(=O)O.Clc1cc(N2C[C@@H]3CN[C@@H]3C2)cnc1Cl [Example 8, (1S,5S)-3-(5,6-Dichloro-pyridin-3-yl)-3,6-diaza-bicyclo[3.2.0]heptane methanesulfonate] | > 50000 | 
Clc1cc(N2C[C@@H]3CN[C@@H]3C2)cnc1Cl.O=C(O)/C=C/C(=O)O [Example 10, (1S,5S)-3-(5,6-Dichloro-pyridin-3-yl)-3,6-diaza-bicyclo[3.2.0]heptane fumarate] | 2900 | 
Clc1cc(N2C[C@@H]3CN[C@@H]3C2)cnc1Cl [(1S,5S)-3-(5,6-Dichloropyridin-3-yl)-3,6-diaza-bicyclo[3.2.0]heptane] |  | reversed the cognitive deficit and normalized the performance of the animals in the water maze
Clc1cc(N2C[C@@H]3CN[C@@H]3C2)cnc1Cl.O=C(O)/C=C\C(=O)O [Example 9, (1S,5S)-3-(5,6-Dichloro-pyridin-3-yl)-3,6-diaza-bicyclo[3.2.0]heptane maleate] | 7500 | 
CC(=O)O.Clc1cc(N2C[C@@H]3CN[C@@H]3C2)cnc1Cl [Example 6, (1S,5S)-3-(5,6-Dichloro-pyridin-3-yl)-3,6-diaza-bicyclo[3.2.0]heptane acetate] | 13400 | 
